From PubChem BioAssay AID493002 (Sanford-Burnham Center for Chemical Genomics, 2010)
Active and inactive are the calls of the source. The rule behind the calls is not given here.

Tested on: S. cerevisiae tim23-1 mutant growth, luminescence
Test: potency against tim23-1 yeast growth – luminescence, uHTS hits, dose response (AID 493002);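 note: yeast grown roughly 22 hours at 25 °C before the luminescence read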

SMILES	IC50
Cc1ccc(NCc2nc3ccccc3n2CCOc2ccccc2)cc1	10.4 µM
COc1ccc2c(c1)-c1nc(NC(=O)c3cccs3)sc1CC2	21.7 µM
COc1ccc(CCn2c(C(C)C)nc3oc4ccccc4c(=O)c3c2=O)cc1	14.2 µM
O=[N+]([O-])c1ccc(N/N=C/c2cccc(O)c2)cc1	6.99 µM
CCc1nc(SCc2ccccn2)c2c(=O)n(C)c(=O)n(C)c2n1	16.3 µM
Nc1nc(Nc2ccccc2)sc1C(=O)c1ccccc1	21 µM
Cc1nc(Nc2ccccc2)sc1C(=O)Nc1ccccc1	14.6 µM
Cc1ccn2cc(-c3ccc(NC(=O)c4ccco4)cc3)nc2c1	17.6 µM
O=C(NC(=O)c1ccccc1F)OCc1ccc(Cl)cc1Cl	11.9 µM
Cc1ccc(S(=O)(=O)Oc2ccccc2C=C2C(=O)N(C)C(=O)N(C)C2=O)cc1	4.22 µM
Cc1nn(CC(=O)Nc2nc3ccccc3s2)c(C)c1[N+](=O)[O-]	8.41 µM
c1ccc(-n2nc3c(ccc4cnnc43)[nH]2)cc1	24.5 µM
COc1cc(/C=N/NC(=O)c2ccc(N)cc2)ccc1OC(=O)c1cccc(C)c1	9.83 µM
CC(C)Oc1cc(O)c2c(=O)c(-c3ccc(O)cc3)coc2c1	7.38 µM
O=C(Nc1ccc(Br)c(Cl)c1)c1ccco1	18.4 µM
CC(=O)Nc1ncnc2c1c(-c1ccc(Cl)cc1)nn2C(C)(C)C	10 µM
O=C1/C(=C/c2ccncc2)SC(=S)N1C1CCCCC1	5.72 µM
O=c1cc(C(Cl)(Cl)Cl)oc2c1ccc1ccccc12	2.2 µM
O=C(Nc1ccc(Nc2ccccc2)cc1)c1ccc(Cl)c([N+](=O)[O-])c1	6.25 µM
O=C(Nc1ncc([N+](=O)[O-])s1)c1ccc2c(c1)OCO2	17.6 µM
COn1c(=O)c(-c2cccs2)[n+]([O-])c2ccccc21	3.96 µM

SMILES	IC50
O=C(Nc1scc(-c2ccccc2)c1C(=O)O)c1ccccc1F	12.2 µM
N#C/C(=C\c1ccc(OCc2ccccc2)cc1)C(N)=O	11.7 µM
O=C1NN=C(c2ccc(Cl)cc2)CC1c1cccc(Br)c1 (stereo not drawn)	> 100 µM (inactive)
CCOC(=O)c1ccc(NC(=O)/C=C/c2cccs2)cc1	26.6 µM
Cc1ccc2occ(/C=N/NC(=O)c3ccccc3Br)c(=O)c2c1	9.7 µM
Cc1cc(C(=O)Nc2ccc(Br)cn2)sc1C	21.1 µM
c1ccc(-c2ncc(-c3ccn[nH]3)s2)cc1	5.97 µM
CCN(CC)S(=O)(=O)c1ccc(C(=O)OCn2nnc3ccccc3c2=O)cc1	9.32 µM
Cc1ccc(CS(=O)(=O)c2ncc(Cl)c(C(=O)Nc3ccc(OC(F)F)cc3)n2)cc1	1.86 µM
Cc1ccc2nc(NC(=O)COC(=O)c3cccnc3)sc2c1	9.58 µM
O=C(O)c1ccc(N/N=C/c2ccc(-c3ccc(Br)cc3)o2)cc1	16.2 µM
O=Cc1cn(CCOc2ccccc2F)c2ccccc12	13 µM
COc1cccc(C(=O)Nc2ccccc2)c1	9.33 µM
NC(=S)N/N=C/c1coc2ccc(Br)cc2c1=O	4.4 µM
COc1cccc(Nc2nc3ccc(OC)cc3s2)c1	10.1 µM
Cc1ccc(-c2nnc(C)c(N3CCCC3)n2)cc1	16.6 µM
NS(=O)(=O)c1ccc(N=Cc2c(O)n(C3CCCCC3)c(=O)n(C3CCCCC3)c2=O)cc1	14.4 µM
N#C/C(=C\c1ccc(Cl)cc1)C(=O)Nc1cccnc1	5.72 µM
CCN(CC)c1ccc(C(=O)Nc2cccc(F)c2)cc1	5.19 µM
Cc1nc2nc(-c3cccs3)[nH]c2cc1Br	7.8 µM
CCOC(=O)Nc1ccc2c(c1)Nc1ccccc1S2	11.3 µM

SMILES	IC50
Nc1ncnc2c1ncn2[C@@H]1O[C@H](CO)C[C@H]1O	14 µM
CC1(C)c2cc(Cl)ccc2-n2c1cc(O)c(-c1ccccc1)c2=O	11.9 µM
O=C(Nc1ccc(Br)c(Cl)c1)C1CC1	18.3 µM
COc1ccc(OC)c(-c2csc(NC(=O)Cc3ccc(F)cc3)n2)c1	9.63 µM
O=C(NC(=S)NC(=O)c1ccccc1F)c1ccccc1F	6.11 µM
CCOC(=O)c1c(C)oc2c1c(C(c1cccnc1)N1CCCCC1)c(O)c1ccccc12 (stereo not drawn)	21.5 µM
Cc1cccc(C(=O)Oc2cccc3c(O)cccc23)c1	8.32 µM
O=C(c1cc(-c2ccc(O)cc2)on1)N1CCCc2ccccc21	12.9 µM
CC(C)(C)c1csc(NC(=O)c2ccc(Cl)s2)n1	4.07 µM
COc1ccc(N2CCN(c3nc4cc(C)ccc4cc3C=O)CC2)cc1	24.9 µM
Cc1ccn2cc(C(=O)Nc3ccc4c(c3)OCCO4)nc2c1	7.9 µM
COc1cccc2c1C(=O)C=C(C)C2=O	5.32 µM
Cc1ccc(-c2nc(CNC(=O)c3cc(C)on3)cs2)cc1	15 µM
CCCCS/C(N)=N/N=C/c1ccccc1O	18.2 µM
Cn1c(/C(C#N)=C/c2ccncc2)nc2ccccc21	16.3 µM
Cc1ccc(NC(=O)c2nc(S(=O)(=O)Cc3ccccc3C)ncc2Cl)cc1C	3.72 µM
Nc1nc(-c2ccc(-c3ccccc3)cc2)cs1	14.9 µM
COC(=O)c1ccc2nc(NC(=O)C3CC3)sc2c1	7.12 µM
CN(C)c1c2ccccc2nc2c(F)c(F)c(F)c(F)c12	16.6 µM
NNC(=O)c1nc(-c2ccccc2)cc(-c2ccccc2)n1	6.65 µM
Cc1oc2cc(O)cc(O)c2c(=O)c1-c1ccc2c(c1)OCCCO2	8.84 µM
